Measurements taken from US4988604A, “High contrast photographic element including an aryl sulfonamidophenyl hydrazide containing both thio and ethyleneoxy groups” (Eastman Kodak Company, priority 1990, dated 1991).

How the values were obtained:
[1] = photographic performance of coatings containing nucleator: relative speed, dot quality, contrast (Example 1); settings: for photographic speed (in words): comparison of tests of Table I; for Relative Speed: incorporated booster 64.6 mg/m^2, 1 minute at 35° C., pH 10.5; for DQ (contact screen exposed halftone dot quality): rated on a scale, 5 is excellent
Description: Each coating used in obtaining the data provided in this example was prepared on a polyester support, using a monodispersed 0.24 μm AgBrI (2.5 mol % iodide) iridium-doped emulsion at 3.51 g/m^2 Ag, 2.54 g gel/m^2, and 1.08 g latex/m^2 where the latex is a copolymer of methyl acrylate, 2-acrylamido-2-methylpropane sulfonic acid, and 2-acetoacetoxyethylmethylacrylate. The silver halide emulsion was spectrally sensitized with 214 mg/Ag mol of anhydro-5,5'-dichloro-9-ethyl-3,3'-di-(3-sulfopropyl) oxacarbocyanine hydroxide, triethylene salt and the emulsion layer was overcoated with gelatin containing polymethylmethacrylate beads. The nucleating agent was added as a methanol solution to the emulsion melts at a level in millimoles (mM) per mole of silver as hereinafter indicated. An "incorporated booster" was added as a methanol solution in an amount of 64.6 milligrams per square meter of photographic element. The compound employed as the "incorporated booster" is represented by the formula: [drawing 8] where Pr represents n-propyl. Coatings were exposed for five seconds to a 3000° K. tungsten light source and processed for 1 minute at 35° C. in the developer solution.
To prepare the developer solution, a concentrate was prepared from the following ingredients:
The concentrate was diluted at a ratio of one part of concentrate to two parts of water to produce a working strength developing solution with a pH of 10.5.
*DQ = contact screen exposed halftone dot quality rated on a scale where
is poor and 5 is excellent.

[2] = chemical spread: dot diameter growth rate of coatings containing nucleator (Example 2); settings: for Dot Diameter Growth Rate: 10 to 60 seconds development
From the text: Coatings similar to those described in Example 1 were examined for differences in the degree of image spreading, so-called chemical spread, that is inherent to high contrast, nucleation processes. The films were exposed 5 seconds with 3000K tungsten light through a 90%, 52 line per centimeter, round dot tint mask to produce hard 10% dots upon development for about 10 seconds in the developer described in Example 1. With extended development beyond 10 seconds (typical development times in practice are 30 to 60 seconds), the nucleation process entails fogging of unexposed silver halide at the dot edges and, in turn, causes the dot to grow in size. The growth of the dot was measured by monitoring the change in density of the developing tint with time from 10 to 60 seconds and converting the measured density to the equivalent dot diameter using the well known relation between integrated halftone density and dot size.

SMILES | photographic speed (in words) [1] | Relative Speed ([1]; nucleator 1.0 mM/Ag mole) | DQ (contact screen exposed halftone dot quality) ([1]; nucleator 1.0 mM/Ag mole) | Relative Speed ([1]; nucleator 2.0 mM/Ag mole) | DQ (contact screen exposed halftone dot quality) ([1]; nucleator 2.0 mM/Ag mole) | screen-exposed halftone dot quality (in words) ([1]; Example 1) | Relative Speed ([1]; nucleator 0.5 mM/Ag mole) | DQ (contact screen exposed halftone dot quality) ([1]; nucleator 0.5 mM/Ag mole) | Relative Speed ([1]; nucleator 0.75 mM/Ag mole) | DQ (contact screen exposed halftone dot quality) ([1]; nucleator 0.75 mM/Ag mole) | dot diameter growth rate or chemical spread (in words) ([2]; Test 4 (one quarter the concentration) compared with Control Test A^1) | Dot Diameter Growth Rate ([2]; nucleator 0.50 mM/Ag mole) | Dot Diameter Growth Rate ([2]; nucleator 1.0 mM/Ag mole) | Dot Diameter Growth Rate ([2]; nucleator 2.0 mM/Ag mole)
CCCCCCCCSCC(=O)Nc1c(C)ccc(S(=O)(=O)Nc2ccc(NNC=O)cc2)c1C [Control C] | significantly lowers the photographic speed relative to the non-thio control of Test A | 68 | 3.5 | 68 | 3.5 | – | – | – | – | – | – | – | – | –
CCCCCCCCOCCOCCOCCOCCSCC(=O)Nc1c(C)ccc(S(=O)(=O)Nc2ccc(NNC=O)cc2)c1C [Compound I-6] | the same speed was achieved in Test 1 even though the molar concentration of nucleator was one quarter of that used in Control Test B | – | – | – | – | significant improvement in the screen-exposed halftone dot quality | 100 | 4.5 | 107 | 4.5 | much less | 0.30 micrometers/sec | 0.41 micrometers/sec | –
CC(C)c1ccc(C(C)C)c(S(=O)(=O)Nc2ccc(NNC=O)cc2)c1 [Control A] | – | 87 | 3.5 | 100 | 4 | – | – | – | – | – | – | – | – | 0.60 micrometers/sec
